# Data as given in patent US20220380430A1, “Non-Transgenic Functional Rescue of Neuropeptides” (Worcester Polytechnic Institute, priority 2021, published 2022).
# Entries after “also recorded” stand apart in the source; their conditions may differ. No end group written: not given here.
# Assays:
# him-5 and pdf-1 males = test: Excursion (food-leaving) assay after rescue-by-feeding; type: in vivo, C. elegans; conditions: for PL (confidence interval): Probability of Leaving per hour, beyond 35 mm from food
# Source text: We quantified the behavioral activity of pdf-1 lof males using a food-leaving behavior as previously described. Individuals were placed on a small food spot, and track patterns were scored at three different time points (2, 6, 24 hrs) (FIG. 4A). “Never left food” indicate the absence of tracks outside the food spot. […] “Major excursion” indicates the presence of tracks past the 1 cm boundary (FIG. 1B, Excursion Assay). The food-leaving behavior was quantified as a measure of mate-searching behavior. In this behavior well-fed males left food in search of mates and the data is represented as a Probability of Leaving (PL) (FIG. 7A).
# The mate searching behavior of pdf-1 mutants was quantified in a food leaving assay. him-5 animals were used as wild-type control to ensure the presence of males. him-5 and pdf-1 animals were fed OP50, scramble peptide, PDF-1A, PDF-1B, or a 1:1 mixture of PDF-1A and PDF-1B cultures. Four to six larval L4 hermaphrodites were passed onto an NGM plate containing […] AMP and 1 mM IPTG with 75 μL of peptide. These worms were grown at 20° C. for about 4 days until the male progeny of the initial L4 worms were young adults. The day prior to the assay, young adult male pdf-1 or him-5 worms were singled onto 60 mm plates containing lawns of either OP50 (NGM plates) or appropriate peptide cultures (NGM containing […] AMP and 1 mM IPTG). To determine the mate searching effects of pdf-1, we performed a food-leaving assay as described previously in Barrios, A., et al., Nat Neurosci 15, 1675-1682 (2012); Lipton, J., et al., The Journal of neuroscience: the official journal of the Society for Neuroscience 24, 7427-7434 (2004); Ryan, D. A. et al. Curr Biol 24, 2509-2517 (2014), with modifications. In this assay, individuals were placed on a small food spot, and track patterns were scored at the indicated times. Assay plates were prepared one day prior to assaying on 100 mm plates with 10 mL of Leaving Assay media (25 mM KPO4 (pH 6.0), 1 mM MgSO4, 1 mM CaCl2), 50 mM NaCl, 2.5 g/L Peptone, 17 g/L Agar). On center of plate, 7 μL of OP50 was added. Plates were lightly covered and stored at room temperature overnight (˜20° C., <40% humidity).
# On the day of the assay, a single male was plated on the assay plate and placed in a dark, 20° C. incubator. At 2, 6, and 24 hours after the worms are plated, plates were scored for male worm tracks. Scored were separated into binned ranges. “Never left food” indicates the absence of tracks outside the food spot. […] “Major excursion” indicates the presence of tracks past the 1 cm boundary. The food leaving behavior was quantified at three different time points (2, 6, and 24 hours). (FIG. 4A, FIG. 7A, Table IV).
# The mate searching defect of pdf-1 was quantified as a Probability of Leaving per hour (PL) (FIG. 4B, FIG. 7B).
# The assay was performed across at least two days per condition, with at least n=50, wherein each assay plate with one male is equal to n=1. In all experiments, the investigators were blinded to genotype. Worm in the >35 mm from the center of food bin were scored as “leavers”. The probability of leaving per hour (Probability of Leaving (PL)) was calculated using an R script developed in Barrios et al., with assistance by (Personal Communications to Barrios, 2020). PL was calculated by the “hazard obtained by fitting an exponential parametric survival model to the censored data using maximum likelihood” (Table IV). The PLh-1 values for all pdf-1 animals fed scramble or peptide rescue were compared to him-5 worms fed scramble using an ANOVA followed by Bonferroni's multiple comparison (FIG. 4B, FIG. 7C).
# NPR-10B = biological target: T1, NPR-10B (Caenorhabditis elegans, UniProt Q6EUU1); test: In vitro GPCR activation assay (CHO-K1 cells, aequorin, human Gα16), NPR-10B; type: cell-based, C. elegans; conditions: for activation of NPR-10 (NPR-10B): in words; for EC50: title: NPR-10B, calcium/aequorin luminescence in transfected CHO-K1 cells
# T1 sequence (Q6EUU1 1-362): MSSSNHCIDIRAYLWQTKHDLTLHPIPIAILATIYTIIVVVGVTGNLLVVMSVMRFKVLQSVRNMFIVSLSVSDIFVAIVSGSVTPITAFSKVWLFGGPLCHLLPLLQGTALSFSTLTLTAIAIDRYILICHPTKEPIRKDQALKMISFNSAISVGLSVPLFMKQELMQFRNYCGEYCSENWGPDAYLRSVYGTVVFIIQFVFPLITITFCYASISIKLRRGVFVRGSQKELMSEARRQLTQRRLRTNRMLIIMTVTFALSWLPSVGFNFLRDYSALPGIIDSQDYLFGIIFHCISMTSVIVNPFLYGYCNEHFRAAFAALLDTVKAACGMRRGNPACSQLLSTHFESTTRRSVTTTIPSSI
# Description: Using Chinese hamster ovarian (CHO) cell cultures stably expressing the promiscuous G protein, Gα16, and the calcium reporter, aequorin, it was observed that both isoforms of NPR-10 are activated by seven of the ten FLP-3 peptides, with half-maximal effective concentrations (EC50) in the nM range (FIG. 14A-FIG. 14H, Table V). […] This peptide contains an R-to-K mutation within the C-terminal motif, which may explain the lack of receptor activation.
# (§1) The GPCR activation assay was performed as previously described Van Sinay, E. et al. Proc. Natl Acad. Sci. USA 114, E4065-e4074 (2017) and Peymen, K. et al. PLoS Genet. 15, e1007945 (2019). Briefly, npr-10 and frpr-16 cDNAs were cloned into the pcDNA3.1 TOPO expression vector (Thermo Fisher Scientific). A CHO-K1 cell line (PerkinElmer, ES-000-A24) stably expressing apo-aequorin targeted to the mitochondria (mtAEQ) and human Gα16 was transiently transfected with the receptor cDNA construct or the empty pcDNA3.1 vector using Lipofectamine LTX and Plus reagent (Thermo Fisher Scientific). Cells were shifted to 28° C. one day later and allowed to incubate for 24 h. On the day of the assay, cells were collected in BSA medium (DMEM/Ham's F12 with 15 mM HEPES, without phenol red, 0.1% BSA) and loaded with […] coelenterazine h (Thermo Fisher Scientific) for 4 h at room temperature. The incubated cells were then added to synthetic peptides dissolved in DMEM/BSA, and luminescence was measured for 30 s at […] using a Mithras LB940 (Berthold Technologies) or MicroBeta LumiJet luminometer (PerkinElmer). After 30 s of readout, 0.1% triton X-100 was added to lyse the cells, resulting in a maximal calcium response that was measured for 10 s. After initial screening, concentration-response curves were constructed for HPLC-purified FLP-3 peptides by subjecting the transfected cells to each peptide in a concentration range from 1 pM to 10 μM. Cells transfected with an empty vector were used as a negative control. Assays were performed in triplicate on at least two independent days. Concentration-response curves were fitted using Prism v. 7 (nonlinear regression analysis with a sigmoidal concentration-response equation).
# flp-3 lof males = test: Drop avoidance assay to ascr #8 after FLP-3 peptide rescue-by-feeding; type: in vivo, C. elegans; conditions: flp-3 lof males raised on peptide; 1 μM ascr #8; in words
# Description: To identify which FLP-3 peptides are required for male avoidance of ascr #8, a peptide feeding approach https://www.nature.com/articles/s42003-021-02547-7-ref-CR59 was adopted, similar to RNAi feeding (FIG. 16A). Using Gateway Cloning technology, FLP-3 peptide coding sequences were inserted into a bacterial expression vector. As a control, first the FLP-3 peptides were tested that are still encoded in the ok3625 allele which are insufficient to drive the proper ascr #8 response in vivo: FLP-3-1 (SPLGTMRFamide) (SEQ ID NO: 10) and FLP-3-4 (NPLGTMRFamide) (SEQ ID NO: 11). Then flp-3 lof animals were reared on lawns of bacteria expressing the rescue constructs, and their progeny were assayed for avoidance (FIG. 16B-FIG. 16D).
# Assays were performed as described previously in Chute, C. D. & Srinivasan, J. Semin. Cell Dev. Biol. 33, 18-24 (2014); Chute, C. D. et al. Nat. Commun. 10, 3186 (2019); and Hilliard, M. A. et al., EMBO J. 23, 1101-1111 (2004). Fifty to sixty L4 worms were segregated by sex and stored at 20° C. for 5 h to overnight to be assayed as young adults. One to four hours prior to the assay, the lids of unseeded plates were tilted to allow any excess moisture to evaporate off the plates. At the time of the assay, 10 or more animals were transferred onto each of the dried, unseeded plates. A drop of either water or 1 μM ascr #8 was placed on the tail of forward moving animals, and their response was scored as either an avoidance response, or no response. The total number of avoidances was divided by the total number of drops to generate an avoidance index for that plate. This was repeated for at least 10 plates over at least three different days.
# SCRAMBLE control or FLP-3 peptide constructs were grown overnight in LB media containing […] ampicillin at 37° C. and diluted to an OD600 of 1.0 prior to seeding on NGM plates containing […] ampicillin and 1 mM IPTG. The 75 μL lawn was left to dry and grow overnight at room temperature before three L4 animals were placed on the plates. Males were selected for testing in the same manner as described above but were isolated onto plates also seeded with the same peptide on which they had been reared. Animals were then assayed using either the avoidance assay or single worm assay.
# FRPR-16 = biological target: T2, FRPR-16 (Caenorhabditis elegans, UniProt Q21957); test: In vitro GPCR activation assay (CHO-K1 cells, aequorin, human Gα16), FRPR-16; type: cell-based, C. elegans; conditions: for activation of FRPR-16: in words; for EC50: calcium/aequorin luminescence in transfected CHO-K1 cells
# T2 sequence (Q21957 1-340): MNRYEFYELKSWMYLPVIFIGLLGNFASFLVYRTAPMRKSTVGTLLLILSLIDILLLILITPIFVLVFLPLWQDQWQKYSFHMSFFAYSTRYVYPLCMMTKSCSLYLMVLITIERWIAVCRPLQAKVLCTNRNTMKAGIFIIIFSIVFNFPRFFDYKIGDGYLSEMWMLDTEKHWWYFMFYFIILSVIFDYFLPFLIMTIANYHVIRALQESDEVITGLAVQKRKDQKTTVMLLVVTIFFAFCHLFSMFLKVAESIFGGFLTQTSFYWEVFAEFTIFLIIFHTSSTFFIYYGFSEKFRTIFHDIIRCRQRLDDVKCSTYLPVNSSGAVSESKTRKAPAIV
# Description: as §1
Substance,rescue of avoidance phenotype to ascr #8 (Avoidance Index) (flp-3 lof males),EC50 (NPR-10B) [µM],EC50 (FRPR-16) [µM],other results
SNAELINGLIGMDLGKLSAVG-NH2 [PDF-1A],–,–,–,"PL (confidence interval) (him-5 and pdf-1 males; him-5 males): 0.06979 (0.05892, 0.08269); PL (confidence interval) (him-5 and pdf-1 males; pdf-1 males): 0.03287 (0.02657, 0.04224)"
STVDSSEPVIRDQ [FLP-3-10],unable to rescue the avoidance phenotype,–,–,activation of NPR-10 (NPR-10B) (NPR-10B): failed to activate the receptor; also recorded: did not activate either receptor; activation of FRPR-16 (FRPR-16): did not activate FRPR-16; also recorded: did not activate either receptor
EDGNAPFGTMKFamide (EDGNAPFGTMKF-NH2) [FLP-3-6],–,–,–,activation of NPR-10 (NPR-10B) (NPR-10B): did not activate NPR-10; also recorded: did not activate either receptor; activation of FRPR-16 (FRPR-16): did not activate FRPR-16; also recorded: did not activate either receptor
SNAELINGLLSMNLNKLSGAG-NH2 [PDF-1B],–,–,–,"PL (confidence interval) (him-5 and pdf-1 males; him-5 males): 0.08712 (0.0754, 0.1007); Probability of Leaving, comparison in words (him-5 and pdf-1 males; pdf-1 lof males fed peptide): significantly different PL from pdf-1 males fed PDF-1A alone; rescue of food-leaving behavior (percent of males leaving food) (him-5 and pdf-1 males; pdf-1 lof males, 2, 6, 24 hrs): complete rescue of food-leaving behavior; PL (confidence interval) (him-5 and pdf-1 males; pdf-1 males): 0.05821 (0.04761, 0.07118)"
"NPLGTMRF-NH2 [FLP-3-4, NPLGTMRFamide]",unable to rescue the avoidance phenotype on their own,0.427,0.0107,–
"SPLGTMRF-NH2 [FLP-3-1, SPLGTMRFamide]",unable to rescue the avoidance phenotype on their own,0.262,0.0074,–
"SAEPFGTMRF-NH2 [FLP-3-7, SAEPFGTMRFamide]",–,0.439,0.0395,–
"ASEDALFGTMRF-NH2 [FLP-3-5, ASEDALFGTMRFamide]",–,1.1,0.0721,–
"EAEEPLGTMRF-NH2 [FLP-3-3, EAEEPLGTMRFamide]",–,0.867,0.288,–
